Assay results reported in patent publication US10246456B2, “IRAK4 inhibiting agents” (BIOGEN MA INC., priority 2014, dated 2019).

Experiments:
IRAK4 = IRAK4 (Homo sapiens (Human), UniProt Q9NWZ3); test: IRAK-4 AlphaScreen biochemical kinase assay; details: 1 nM IRAK4, 1 mM ATP, 3.5 h at RT
Procedure, shortened: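 AlphaScreen read-out: streptavidin beads bind the biotinylated peptide and protein A beads bind the anti-phosphothreonine antibody, so energy transfer reports phosphorylation of the peptide. The kinase is human IRAK-4.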

IL-6 in A549 cells = test: Cell-based IL-6 ELISA assay in IL-1beta stimulated A549 cells; details: 2 ng/ml human IL-1beta overnight
Procedure, shortened: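 A549 cells (2.5×10^4/well, DMEM/10% FBS) pretreated 30 min at 37 C with compound, 10-point serial dilution from 10 uM, then stimulated overnight with 2 ng/ml human IL-1beta. Secreted IL-6 in supernatant quantified by human IL-6 ELISA.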

Sequence of IRAK4 (Q9NWZ3 whole entry, species assumed): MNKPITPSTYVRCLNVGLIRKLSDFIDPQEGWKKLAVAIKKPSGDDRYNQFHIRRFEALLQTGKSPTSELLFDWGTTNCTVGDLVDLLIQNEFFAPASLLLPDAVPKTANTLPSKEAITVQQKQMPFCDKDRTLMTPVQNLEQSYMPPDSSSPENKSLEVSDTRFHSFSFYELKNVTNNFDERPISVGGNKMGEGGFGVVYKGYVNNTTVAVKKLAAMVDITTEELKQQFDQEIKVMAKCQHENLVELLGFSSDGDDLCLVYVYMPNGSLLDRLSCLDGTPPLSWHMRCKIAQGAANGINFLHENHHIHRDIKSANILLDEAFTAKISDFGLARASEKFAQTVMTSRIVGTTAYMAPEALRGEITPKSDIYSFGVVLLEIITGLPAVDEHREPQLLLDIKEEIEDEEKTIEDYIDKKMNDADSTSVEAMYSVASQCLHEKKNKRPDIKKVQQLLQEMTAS

SMILES	IC50 (IRAK4)	EC50 (IL-6 in A549 cells)
C[C@H](N)c1cccc(-c2cc(-c3ncco3)c3cnn(-c4cccc(CO)n4)c3c2)n1 [Example 359, (S)-(6-(6-(6-(1-aminoethyl)pyridin-2-yl)-4-(oxazol-2-yl)-1H-indazol-1-yl)pyridin-2-yl)methanol]	< 100 nM	≤ 1000 nM
CCC[C@H](N)c1cccc(-c2cc(N3CCCC3CO)c3cnn(-c4cccc(CO)n4)c3c2)n1 (stereo partly drawn) [Example 326, (1-(6-(6-((S)-1-aminobutyl)pyridin-2-yl)-1-(6-(hydroxymethyl)pyridin-2-yl)-1H-indazol-4-yl)pyrrolidin-2-yl)methanol]	< 100 nM	≤ 1000 nM
CCC[C@H](N)c1cccc(-c2cc(N3CCCC(F)(F)C3)c3cnn(-c4cccc(CO)n4)c3c2)n1 [Example 347, (S)-(6-(6-(6-(1-aminobutyl)pyridin-2-yl)-4-(3,3-difluoropiperidin-1-yl)-1H-indazol-1-yl)pyridin-2-yl)methanol]	< 100 nM	≤ 1000 nM
CCC[C@H](N)c1cccc(-c2cc(N3CC(C)(C)C3)c3cnn(-c4cccc(CO)n4)c3c2)n1 [Example 340, (S)-(6-(6-(6-(1-aminobutyl)pyridin-2-yl)-4-(3,3-dimethylazetidin-1-yl)-1H-indazol-1-yl)pyridin-2-yl)methanol]	< 100 nM	≤ 1000 nM
CC[C@H](N)c1cccc(-c2cc(-c3ccn(C)n3)c3cnn(-c4cccc(CO)n4)c3c2)n1 [Example 360, (S)-(6-(6-(6-(1-aminopropyl)pyridin-2-yl)-4-(1-methyl-1H-pyrazol-3-yl)-1H-indazol-1-yl)pyridin-2-yl)methanol]	< 100 nM	≤ 1000 nM
Cc1nc(-c2cc(-c3cccc([C@H](C)N)n3)cc3c2cnn3-c2cccc(CO)n2)cs1 [Example 368, (S)-(6-(6-(6-(1-aminoethyl)pyridin-2-yl)-4-(2-methylthiazol-4-yl)-1H-indazol-1-yl)pyridin-2-yl)methanol]	< 100 nM	≤ 1000 nM
CC[C@H](N)c1cccc(-c2ccc3cnn(-c4cncc(CO)n4)c3c2)n1 [Example 398, (S)-(6-(6-(6-(1-aminopropyl)pyridin-2-yl)-1H-indazol-1-yl)pyrazin-2-yl)methanol]	< 100 nM	≤ 1000 nM
CCC[C@H](N)c1cccc(-c2cc(N3CC(F)(F)C3)c3cnn(-c4cccc(CO)n4)c3c2)n1 [Example 331, (S)-(6-(6-(6-(1-aminobutyl)pyridin-2-yl)-4-(3,3-difluoroazetidin-1-yl)-1H-indazol-1-yl)pyridin-2-yl)methanol]	< 100 nM	≤ 1000 nM
CCC[C@H](N)c1cccc(-c2cc(NC)c3cnn(-c4cccc(CO)n4)c3c2)n1 [Example 327, (S)-(6-(6-(6-(1-aminobutyl)pyridin-2-yl)-4-(methylamino)-1H-indazol-1-yl)pyridin-2-yl)methanol]	< 100 nM	≤ 1000 nM
C[C@H](N)c1cccc(-c2cc(-c3ccccc3)c3cnn(-c4cccc(CO)n4)c3c2)n1 [Example 371, (S)-(6-(6-(6-(1-aminoethyl)pyridin-2-yl)-4-phenyl-1H-indazol-1-yl)pyridin-2-yl)methanol]	< 100 nM	≤ 1000 nM
CCC[C@H](N)c1cccc(-c2cc(N3CCC(C(=O)O)CC3)c3cnn(-c4cccc(CO)n4)c3c2)n1 [Example 350, (S)-1-(6-(6-(1-aminobutyl)pyridin-2-yl)-1-(6-(hydroxymethyl)pyridin-2-yl)-1H-indazol-4-yl)piperidine-4-carboxylic acid]	< 100 nM	1000 to 10000 nM
C[C@H](N)c1cccc(-c2ccc3cnn(-c4cncc(CO)n4)c3c2)n1 [Example 397, (S)-(6-(6-(6-(1-aminoethyl)pyridin-2-yl)-1H-indazol-1-yl)pyrazin-2-yl)methanol]	100 to 1000 nM	≤ 1000 nM
CCOc1cc(-c2cccc([C@@H](N)[C@H](F)CC)n2)cc2c1cnn2-c1cccc(CO)n1 [Example 443, (6-(6-(6-((1R,2R)-1-amino-2-fluorobutyl)pyridin-2-yl)-4-ethoxy-1H-indazol-1-yl)pyridin-2-yl)methanol]	< 100 nM	≤ 1000 nM
N[C@@H](CCC(F)(F)F)c1cccc(-c2ccc3cnn(-c4cccc(CO)n4)c3c2)n1 [Example 427, (S)-(6-(6-(6-(1-amino-4,4,4-trifluorobutyl)pyridin-2-yl)-1H-indazol-1-yl)pyridin-2-yl)methanol]	< 100 nM	≤ 1000 nM
N[C@H](c1cccc(-c2ccc3cnn(-c4cccc(CO)n4)c3c2)n1)C1CCC1 [Example 422, (S)-(6-(6-(6-(amino(cyclobutyl)methyl)pyridin-2-yl)-1H-indazol-1-yl)pyridin-2-yl)methanol]	< 100 nM	≤ 1000 nM
CCC[C@H](N)c1cccc(-c2cc(N3CCN(C)CC3)c3cnn(-c4cccc(CO)n4)c3c2)n1 [Example 343, (S)-(6-(6-(6-(1-aminobutyl)pyridin-2-yl)-4-(4-methylpiperazin-1-yl)-1H-indazol-1-yl)pyridin-2-yl)methanol]	< 100 nM	≤ 1000 nM

Other lines, results leading:

IC50 (IRAK4)	EC50 (IL-6 in A549 cells)	SMILES
< 100 nM	≤ 1000 nM	CCOc1cc(-c2cccc([C@@H](N)CCC(F)(F)F)n2)cc2c1cnn2-c1cccc(CO)n1 [Example 510, (S)-(6-(6-(6-(1-amino-4,4,4-trifluorobutyl)pyridin-2-yl)-4-ethoxy-1H-indazol-1-yl)pyridin-2-yl)methanol]
100 to 1000 nM	≤ 1000 nM	NC(CO)c1cccc(-c2ccc3cnn(-c4cccc(CO)n4)c3c2)n1 (stereo not shown) [Example 530, 2-amino-2-(6-(1-(6-(hydroxymethyl)pyridin-2-yl)-1H-indazol-6-yl)pyridin-2-yl)ethanol]
< 100 nM	≤ 1000 nM	CC(N)c1cccc(-c2ccc3cnn(-c4cccc(C(F)F)n4)c3c2)n1 (stereo in doubt) [Example 529, (S)-1-(6-(1-(6-(difluoromethyl)pyridin-2-yl)-1H-indazol-6-yl)pyridin-2-yl)ethanamine]
< 100 nM	≤ 1000 nM	CCC[C@H](N)c1cccc(-c2cc(OC(F)F)c3cnn(-c4cncc(CO)n4)c3c2)n1 [Example 526, (S)-(6-(6-(6-(1-aminobutyl)pyridin-2-yl)-4-(difluoromethoxy)-1H-indazol-1-yl)pyrazin-2-yl)methanol]
< 100 nM	≤ 1000 nM	CCC[C@H](N)c1cccc(-c2cc(OC(C)C)c3cnn(-c4cccc(CO)n4)c3c2)n1 [Example 483, (6-{6-[6-((S)-1-Amino-butyl)-pyridin-2-yl]-4-isopropoxy-indazol-1-yl}-pyridin-2-yl)-methanol]
< 100 nM	≤ 1000 nM	CCC(O)C(N)c1cccc(-c2ccc3cnn(-c4cccc(CO)n4)c3c2)n1 (stereo not shown) [Example 507, 1-amino-1-(6-(1-(6-(hydroxymethyl)pyridin-2-yl)-1H-indazol-6-yl)pyridin-2-yl)butan-2-ol]
< 100 nM	≤ 1000 nM	C[C@H](N)c1cccc(-c2cc(C#N)c3cnn(-c4cccc(CO)n4)c3c2)n1 [Example 537, (S)-6-(6-(1-aminoethyl)pyridin-2-yl)-1-(6-(hydroxymethyl)pyridin-2-yl)-1H-indazole-4-carbonitrile]
< 100 nM	≤ 1000 nM	Cc1cccc(-n2ncc3c(-c4cnco4)cc(-c4cccc(C(C)N)n4)cc32)n1 (stereo not shown) [Example 536, 1-(6-(1-(6-methylpyridin-2-yl)-4-(oxazol-5-yl)-1H-indazol-6-yl)pyridin-2-yl)ethanamine]
< 100 nM	≤ 1000 nM	CCC[C@H](N)c1cccc(-c2cc(F)c3cnn(-c4cccc(CO)n4)c3c2)n1 [Example 474, (6-{6-[6-((S)-1-Amino-butyl)-pyridin-2-yl]-4-fluoro-indazol-1-yl}-pyridin-2-yl)-methanol]
< 100 nM	≤ 1000 nM	CC[C@H](N)c1cccc(-c2cc(OCCCOC)c3cnn(-c4cccc(CO)n4)c3c2)n1 [Example 457, (S)-(6-(6-(6-(1-aminopropyl)pyridin-2-yl)-4-(3-methoxypropoxy)-1H-indazol-1-yl)pyridin-2-yl)methanol]
< 100 nM	≤ 1000 nM	CCC[C@H](N)c1cccc(-c2cc(OCC(F)(F)F)c3cnn(-c4cccc(CO)n4)c3c2)n1 [Example 514, (S)-(6-(6-(6-(1-aminobutyl)pyridin-2-yl)-4-(2,2,2-trifluoroethoxy)-1H-indazol-1-yl)pyridin-2-yl)methanol]
< 100 nM	1000 to 10000 nM	C[C@H](N)c1cccc(-c2ccc3cnn(-c4ccc(F)c(CO)n4)c3c2)n1 [Example 545, (S)-(6-(6-(6-(1-aminoethyl)pyridin-2-yl)-1H-indazol-1-yl)-3-fluoropyridin-2-yl)methanol]
< 100 nM	≤ 1000 nM	CC[C@H](N)c1cccc(-c2cc(C#N)c3cnn(-c4cccc(CO)n4)c3c2)n1 [Example 533, (S)-6-(6-(1-aminopropyl)pyridin-2-yl)-1-(6-(hydroxymethyl)pyridin-2-yl)-1H-indazole-4-carbonitrile]
< 100 nM	≤ 1000 nM	CCCC[C@H](N)c1cccc(-c2ccc3cnn(-c4cccc(CO)n4)c3c2)n1 [Example 493, (S)-(6-(6-(6-(1-aminopentyl)pyridin-2-yl)-1H-indazol-1-yl)pyridin-2-yl)methanol]
< 100 nM	≤ 1000 nM	C=C(C)C[C@H](N)c1cccc(-c2ccc3cnn(-c4cccc(CO)n4)c3c2)n1 [Example 436, (S)-(6-(6-(6-(1-amino-3-methylbut-3-en-1-yl)pyridin-2-yl)-1H-indazol-1-yl)pyridin-2-yl)methanol]
< 100 nM	≤ 1000 nM	CCOc1cc(-c2cccc([C@H](N)c3ccccc3)n2)cc2c1cnn2-c1cccc(CO)n1 [Example 439, (R)-(6-(6-(6-(amino(phenyl)methyl)pyridin-2-yl)-4-ethoxy-1H-indazol-1-yl)pyridin-2-yl)methanol]
